Laboratory results: patent US20060063784A1, “Method of using substituted pyrazolo [1,5-a] pyrimidines” (priority 2004, published 2006)

What follows are compounds tested on 80S14 (p21-deficient) cells (assay: Cytotoxicity assay using isogenic cell lines: IC50 in 80S14 (p21-deficient) cells, SRB). Conditions: 80S14 p21-deficient cells, 5 days incubation, SRB; read-out: IC50 for 80SI4.
Type: cell-based, human
Summary of the method: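 80S14 (p21-deficient) cells seeded at 12,000 cells/well overnight, then exposed 5 days at 37 °C to serial dilutions (5 pM–50 μM or 170 pg/ml–10 μg/ml). TCA-fixed, sulforhodamine B-stained, absorbance at 560 nm; IC50 taken from cytotoxicity curves versus untreated controls.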

| Compound | IC50 |
| --- | --- |
| CN(C)CCNC(=O)Nc1cccc(-c2ccnc3c(C(=O)c4cccs4)cnn23)c1 [Example 161, N-[2-(dimethylamino)ethyl]-N′-{3-[3-(thien-2-ylcarbonlyl)pyrazolo[1,5-a]pyrimidin-7-yl]phenyl}urea] | 10 to 50 µM |
| O=C(CNC(=O)NC1CCCCC1)Nc1cccc(-c2ccnc3c(C(=O)c4cccs4)cnn23)c1 [Example 138, N-2-[(cyclohexylamino)carbonyl]-N1-{3-[3-(thien-2-ylcarbonyl)pyrazolo[1,5-a]pyrimidin-7-yl]phenyl}glycinamide] | 1 to 10 µM |
| O=C(c1cccs1)c1cnn2c(-c3cccc(NC(=O)[C@@H]4CCCN4)c3)ccnc12 [Example 85] | 1 to 10 µM |
| O=C(Cc1cccs1)Nc1cccc(-c2ccnc3c(C(=O)c4cccs4)cnn23)c1 [Example 66] | < 1 µM |
| N[C@@H](CC1CCCCC1)C(=O)Nc1cccc(-c2ccnc3c(C(=O)c4cccs4)cnn23)c1 [Example 82, 3-cyclohexyl-N-1-[3-[3-(thien-2-ylcarbonyl)pyrazolo[1,5-a]pyrimidin-7-yl]phenyl}-L-alaninamide] | 10 to 50 µM |

Same assay, conditions: Homo sapiens, 80S14, 120 h, read-out: IC50 for 80S14 (uM)

| Compound | IC50 |
| --- | --- |
| CC(C)(C)C(=O)Nc1cccc(-c2ccnc3c(C(=O)c4ccccc4)cnn23)c1 [Example 242, N-[3-(3-Benzoylpyrazolo[1,5-a]-pyrimidin-7-yl)phenyl]-2,2-dimethyl-propanamide] | 1 to 10 µM |
| CC(C)OC(=O)Nc1cccc(-c2ccnc3c(C(=O)C4CCCC4)cnn23)c1 [Example 295, Isopropyl 3-[3-(cyclopentylcarbonyl)pyrazolo[1,5-a]pyrimidin-7-yl]phenylcarbamate] | 1 to 10 µM |
| CC(C)OC(=O)Nc1cccc(-c2ccnc3c(C(=O)c4ccoc4)cnn23)c1 [Example 305, Isopropyl 3-[3-(3-furoyl)pyrazolo[1,5-a]pyrimidin-7-yl]phenylcarbamate] | 1 to 10 µM |
| CCC(=O)N(C)c1cccc(-c2ccnc3c(C(=O)c4cccs4)cnn23)c1 [Example 237, N-Methyl-N-[3-[3-(2-thienylcarbonyl)-pyrazolo[1,5-a]pyrimidin-7-yl]phenyl}-propanamide] | 1 to 10 µM |
| CC(C)C(=O)Nc1cccc(-c2ccnc3c(C(=O)c4ccco4)cnn23)c1 [Example 241, N-[3-[3-(2-Furanylcarbonyl)pyrazolo-[1,5-a]pyrimidin-7-yl]phenyl}-2-methyl-propanamide] | 1 to 10 µM |

Same assay, conditions: Homo sapiens, 80S14, 120 h, read-out: IC50 for 80SI4 (uM)

| Compound | IC50 |
| --- | --- |
| CCC(CC)C(=O)Nc1cccc(-c2ccnc3c(C(=O)c4cccs4)cnn23)c1 [Example 150, 2-ethyl-N-{3-[3-(thien-2-ylcarbonyl)pyrazolo[1,5-a]pyrimidin-7-yl]phenyl}butanamide] | 1 to 10 µM |
| C=CCCOC(=O)Nc1cccc(-c2ccnc3c(C(=O)c4cccs4)cnn23)c1 [Example 20, 3-butenyl 3-[3-(2-thienylcarbonyl)pyrazolo[1,5-a]pyrimidin-7-yl]phenylcarbamate] | < 1 µM |

Same assay, conditions: Homo sapiens, 120 h; 80S14 (p21-deficient) cells, 5 days, SRB; class symbols; read-out: IC50 for 80S14

| Compound | IC50 |
| --- | --- |
| O=C(c1ccccc1)c1cnn2c(-c3cccc(N4CCCCC4=O)c3)ccnc12 [Example 227, 1-[3-(3-Benzoylpyrazolo[1,5-a]-pyrimidin-7-yl)phenyl]-2-piperidinone] | 10 to 50 µM |
| O=C(c1cccs1)c1cnn2c(-c3cccc(NC(=S)Nc4cccc(-c5ccnc6c(C(=O)c7cccs7)cnn56)c4)c3)ccnc12 [Example 406, N,N′-bis {3-[3-(Thien-2-ylcarbonyl)pyrazolo[1,5-a]pyrimidin-7-yl]phenyl}thiourea] | 10 to 50 µM |
| COc1ccc(-c2ccnc3c(C(=O)c4cccs4)cnn23)cc1NC(=O)NC(C)C [Example 323, N-Isopropyl-N′-{2-methoxy-5-[3-(2-thienylcarbonyl)pyrazolo[1,5-a]pyrimidin-7-yl]phenyl}urea] | 1 to 10 µM |
| CCCCCC/C(=C\c1ccccc1)CNc1cccc(-c2ccnc3c(C(=O)c4cccs4)cnn23)c1 [Example 409, [7-(3-{[(2E)-2-Hexyl-3-phenylprop-2-enyl]amino}phenyl)pyrazolo[1,5-a]pyrimidin-3-yl] (thien-2-yl)methanone] | 10 to 50 µM |
| CN(C(=O)C1CC1)c1cccc(-c2ccnc3c(C(=O)c4ccccc4)cnn23)c1 [Example 236, N-[3-(3-benzoylpyrazolo[1,5-a]-pyrimidin-7-yl)phenyl]-N-methyl-cyclopropanecarboxamide] | 10 to 50 µM |
| O=C(c1cccs1)c1cnn2c(-c3cccc(OC4CCCC4)c3)ccnc12 [Example 265, [7-[3-(Cyclopentyloxy)phenyl]pyrazolo[1,5-a]pyrimidin-3-yl]-2-thienyl-methanone] | 1 to 10 µM |
| O=C(Nc1ccccc1)c1cccc(-c2ccnc3c(C(=O)c4cccs4)cnn23)c1 [Example 321, N-Phenyl-3-[3-(2-thienylcarbonyl)pyrazolo[1,5-a]pyrimidin-7-yl]benzamide] | < 1 µM |
| COc1ccc(-c2ccnc3c(C(=O)c4cccs4)cnn23)cc1NC(=O)OC(C)C [Example 316, Isopropyl 2-methoxy-5-[3-(2-thienylcarbonyl)pyrazolo[1,5-a]pyrimidin-7-yl]phenylcarbamate] | 1 to 10 µM |

Same assay, conditions: Homo sapiens, 120 h; 80S14 p21-deficient cells, 5 days incubation, SRB; read-out: IC50 for 80SI4

| Compound | IC50 |
| --- | --- |
| CCS(=O)(=O)Nc1cccc(-c2ccnc3c(C(=O)c4cccs4)cnn23)c1 [Example 28, N-{3-[3-(thien-2-ylcarbonyl)pyrazolo[1,5-a]pyrimidin-7-yl]phenyl}ethanesulfonamide] | < 1 µM |
| CC1CCC(OC(=O)Nc2cccc(-c3ccnc4c(C(=O)c5cccs5)cnn34)c2)C1 (centres unmarked) [Example 188, 3-methylcyclopentyl 3-[3-(thien-2-ylcarbonyl)pyrazolo[1,5-a]pyrimidin-7-yl]phenylcarbamate] | < 1 µM |
| COC(=O)[C@@H](NC(=O)Nc1cccc(-c2ccnc3c(C(=O)c4cccs4)cnn23)c1)C(C)C [Example 4, methyl N-[({3-[3-(thien-2-ylcarbonyl)pyrazolo[1,5-a]pyrimidin-7-yl]phenyl}amino)carbonyl]-L-valinate] | < 1 µM |
| CC(C)NC(=O)Nc1cccc(-c2ccnc3c(C(=O)c4cccs4)cnn23)c1 [Example 6, N-isopropyl-N′-{3-[3-(thien-2-ylcarbonyl)pyrazolo[1,5-a]pyrimidin-7-yl]phenyl}urea] | < 1 µM |
| O=C(CNC(=O)OCCCCCl)Nc1cccc(-c2ccnc3c(C(=O)c4cccs4)cnn23)c1 [Example 119, 4-chlorobutyl 2-oxo-2-({3-[3-(thien-2-ylcarbonyl)pyrazolo[1,5-a]pyrimidin-7-yl]phenyl}amino)ethylcarbamate] | 10 to 50 µM |
| CCC(CC)OC(=O)Nc1cccc(-c2ccnc3c(C(=O)c4cccs4)cnn23)c1 [Example 186, 1-ethylpropyl 3-[3-(thien-2-ylcarbonyl)pyrazolo[1,5-a]pyrimidin-7-yl]phenylcarbamate] | < 1 µM |
| CCOC(=O)NCC(=O)Nc1cccc(-c2ccnc3c(C(=O)c4cccs4)cnn23)c1 [Example 113, ethyl 2-oxo-2-({3-[3-(thien-2-ylcarbonyl)pyrazolo[1,5-a]pyrimidin-7-yl]phenyl}amino)ethylcarbamate] | 1 to 10 µM |
| O=C(CNC(=O)c1ccccc1)Nc1cccc(-c2ccnc3c(C(=O)c4cccs4)cnn23)c1 [Example 135, N-[2-oxo-2-({3-[3-(thien-2-ylcarbonyl)pyrazolo[1,5-a]pyrimidin-7-yl]phenyl]amino)ethyl]benzamide] | 1 to 10 µM |
| O=C(c1cccs1)c1cnn2c(-c3cccc(NS(=O)(=O)/C=C/c4ccccc4)c3)ccnc12 [Example 37, (E)-2-phenyl-N-{3-[3-(thien-2-ylcarbonyl)pyrazolo[1,5-a]pyrimidin-7-yl]phenyl}ethenesulfonamide] | 10 to 50 µM |
| Cc1cnc2c(C(=O)c3cccs3)cnn2c1-c1cccc(NC(=O)NC(C)C)c1 [Example 222, N-isopropyl-N′-{3-[6-methyl-3-(thien-2-ylcarbonyl)pyrazolo[1,5-a]pyrimidin-7-yl]phenyl}urea] | 10 to 50 µM |
| C=CCCC(=O)Nc1cccc(-c2ccnc3c(C(=O)c4cccs4)cnn23)c1 [Example 57, N-{3-[3-(thien-2-ylcarbonyl)pyrazolo[1,5-a]pyrimidin-7-yl]phenyl}pent-4-enamide] | < 1 µM |
| COc1ccc(CC(=O)Nc2cccc(-c3ccnc4c(C(=O)c5cccs5)cnn34)c2)cc1 [Example 106, 2-(4-methoxyphenyl)-N-{3-[3-(thien-2-ylcarbonyl)pyrazolo[1,5-a]pyrimidin-7-yl]phenyl}acetamide] | < 1 µM |
| CC(C)OC(=O)NCC(=O)Nc1cccc(-c2ccnc3c(C(=O)c4cccs4)cnn23)c1 [Example 115, isopropyl 2-oxo-2-({3-[3-(thien-2-ylcarbonyl)pyrazolo[1,5-a]pyrimidin-7-yl]phenyl}amino)ethylcarbamate] | 1 to 10 µM |
| Cc1cnc2c(C(=O)c3cccs3)cnn2c1-c1cccc(NC(=O)Cc2cccs2)c1 [Example 219, N-{3-[6-methyl-3-(thien-2-ylcarbonyl)pyrazolo[1,5-a]pyrimidin-7-yl]phenyl}-2-thien-2-ylacetamide] | 10 to 50 µM |
| N#CCC(=O)Nc1cccc(-c2ccnc3c(C(=O)c4cccs4)cnn23)c1 [Example 60, 2-cyano-N-{3-[3-(thien-2-ylcarbonyl)pyrazolo[1,5-a]pyrimidin-7-yl]phenyl]acetamide] | < 1 µM |
| Cc1ccccc1S(=O)(=O)Nc1cccc(-c2ccnc3c(C(=O)c4cccs4)cnn23)c1 [Example 33, 2-methyl-N-{3-[3-(thien-2-ylcarbonyl)pyrazolo[1,5-a]pyrimidin-7-yl]phenyl}benzenesulfonamide] | < 1 µM |
| O=C(Nc1cccc(-c2ccnc3c(C(=O)c4cccs4)cnn23)c1)OCc1ccccc1 [Example 24, benzyl 3-[3-(thien-2-ylcarbonyl)pyrazolo[1,5-a]pyrimidin-7-yl]phenylcarbamate] | < 1 µM |
| O=C(COc1ccccc1)Nc1cccc(-c2ccnc3c(C(=O)c4cccs4)cnn23)c1 [Example 111, 2-phenoxy-N-{3-[3-(thien-2-ylcarbonyl)pyrazolo[1,5-a]pyrimidin-7-yl]phenyl}acetamide] | 1 to 10 µM |
